Laboratory results as given in publication PMC9824425, “Ammonium Uptake, Mediated by Ammonium Transporters, Mitigates Manganese Toxicity in Duckweed, Spirodela polyrhiza” (Plants, 2023).

How the values were obtained:
SpAMT1;3 = conditions: NH4Cl 10-10,000 µM; pH 5.5 (MES/Tris); choline chloride 110 mM; membrane potential for the fit not told
SpAMT1;1 = conditions: NH4Cl 10-10,000 µM; pH 5.5 (MES/Tris); choline chloride 110 mM; membrane potential for the fit not told

Km (SpAMT1;3): 5400 µM
Km (SpAMT1;1): 116 µM
SMILES: N [ammonium]
